In patent US9051592B2, “Methods of ganglioside production” (Garnet BioTherapeutics, Inc., priority 2012, dated 2015):
Read-outs that look alike come from different tables or passages of the source.

Experiments:
[1] = system: Adult Human Bone Marrow Cells
[2] = system: Affected sheep bone marrow cells (SBM); assay: GM1 induction in affected sheep bone marrow cells by different treatments, CTB-Alexa 488 staining (Table 2); settings: affected SBM 20,000 cells/well, 72 H (Poly-L-Lysine coated coverslips 6 Days)
ADSC = assay type: cell-based, Human
Lonza BMSC = assay: GM1 induction by CLQ treatment, CTB-Alexa488 staining (Table 4); assay type: cell-based, Human; settings: Lonza MSC basal medium + growth supplements, 10,000 per well, CLQ 48-120 hours
Protocol: Human bone marrow-derived stromal cells, adipose-derived stromal cells, dermal fibroblasts, and fibroblasts from subjects diagnosed with GM1 gangliosidosis, as well as immortalized neuroblastoma cells (SHSY-5Y, SHSY-S and SK-N-AS), Chinese Hamster Ovary cells (CHO-K1), and Human Embryonic Kidney cells (HEK293) were purchased from commercial sources. Cells were cultured on 24 well plates in standard culture medium, at a density of 2000-20,000 cells/well overnight and either maintained in standard culture medium (CONTROL) or treated with chloroquine (CLQ) according to the conditions listed in Table 4 below. Cells were maintained in a tissue culture incubator at approximately 37° C. in a humidified atmosphere comprising approximately 5% CO2 and approximately 21% O2 balanced with N2. After treatment for 48-120 hours, the cells were fixed with 4% paraformaldehyde and stained with CTB-Alexa488 to detect GM1 ganglioside. Extensive GM1 accumulation is evident in most cells types compared to controls maintained in standard culture media alone. (FIGS. 10 and 11 and Table 4).

GM1 fibroblast = assay type: cell-based, Human
[3] = system: SHSY-5Y, SHSY-S, SK-N-AS, CHO-K1 and HEK293 cells; assay type: cell-based
Dermal fibroblast = assay type: cell-based, Human
[4] = system: Human bone marrow cells (HBM); settings: HBM 20,000 cells/well, serum-free medium 72 H, chloroquine 48 H
SHSY-S = assay type: cell-based
GBT-ABMSC = assay type: cell-based, Human
SK-N-AS = assay type: cell-based
[5] = system: HT22 (mouse hippocampal) cells; settings: Hirata et al., J. Neurochem. 119:839-847 (2011); cited from earlier work
SHSY-5Y = assay type: cell-based, human
[6] = system: GBT-ABMSC, Lonza BMSC, Lonza ADSC, dermal fibroblast and GM1 fb cells; assay type: cell-based, Human
HEK293 = assay type: cell-based, Human
[7] = system: Affected sheep bone marrow cells (SBM)
CHO-K1 = assay type: cell-based, Chinese Hamster
[8] = system: human bone marrow-derived cells (HBM); assay: GM1 up-regulation, CTB-HRP normalized to Alamar Blue (Example 3, FIG. 3); assay type: cell-based
[9] = system: PC12 (rat adrenal medulla tumor) cells; settings: Yuyama et al., FEBS Lett. 580:6972-6976 (2006); cited from earlier work
[10] = pretreatment; background statement; cited from earlier work
[11] = system: Parkinson's disease subjects; settings: five-year study; Schneider et al., J. Neurol. Sci. 292:45-51 (2010); cited from earlier work
[12] = system: central nervous system lesions in experimental animals; settings: background statement; cited from earlier work
[13] = system: Parkinson's disease subjects; settings: short-term treatment; Schneider et al., Neurology 50:1630-1636 (1998); cited from earlier work

CCN(CC)CCCC(C)Nc1ccnc2cc(Cl)ccc12 (centres unmarked) [Chloroquine, chloroquine]
Cell Death (SHSY-5Y cells): + | Cell Death [1]: 10-20% | Degree of GM1 Staining ([2]; listed as CLQ): also induced GM1, but not as much as CLQ/NIM | % Increase in Degree of Staining with induction (ADSC): 28% | % Increase in Degree of Staining with induction (Lonza BMSC): 119% | % Increase in Degree of Staining with induction (GM1 fibroblast): 28% | GM1 signal (CTB-Alexa488) compared to control conditions, FIG. 10 [3]: more abundant and intense compared to control conditions for all cell types | % Increase in Degree of Staining with induction (Dermal fibroblast): 63% | Degree of GM1 Staining [4]: +++++ | Degree of GM1 Staining ([4]; listed as CLQ): most intense staining | % Increase in Degree of Staining with induction (SHSY-S): 19% | % Increase in Degree of Staining with induction (GBT-ABMSC): 65% | % Increase in Degree of Staining with induction (SK-N-AS): 19% | GM1 levels in HT22 cells [5]: only moderately increased GM1 levels | % Increase in Degree of Staining with induction (SHSY-5Y): 104% | GM1 signal (CTB-Alexa488) compared to control conditions, FIG. 11 [6]: more abundant and intense compared to control conditions for all cell types | % Increase in Degree of Staining with induction (HEK293): 15% | Degree of Cell Death [7]: + | % Increase in Degree of Staining with induction (CHO-K1): 83% | up-regulation of GM1 expression (CTB-HRP normalized to Alamar Blue) versus control [8]: approximately 8 fold | accumulation in PC12 cells [9]: induce accumulation

CCCCCCCCCCCCC/C=C/[C@@H](O)[C@H](CO[C@@H]1O[C@H](CO)[C@@H](O[C@@H]2O[C@H](CO)[C@H](O[C@@H]3O[C@H](CO)[C@H](O)[C@H](O[C@@H]4O[C@H](CO)[C@H](O)[C@H](O)[C@H]4O)[C@H]3NC(C)=O)[C@H](O[C@]3(C(=O)O)C[C@@](O)(CO)[C@@H](NC(C)=O)[C@H]([C@H](O)CO)O3)[C@H]2O)[C@H](O)[C@H]1O)NC(=O)CCCCCCCCCCCCCCCCC [GM1]
damage resulting from neurotoxin exposures [10]: inhibits damage | clinical benefit of long-term use [11]: may provide some clinical benefit | safety of long-term use [11]: safe | recovery from central nervous system lesions [12]: significant biochemical and behavioral recovery | symptom reduction [13]: significant symptom reduction

N[C@H]1C(O)O[C@H](CO)[C@@H](O)[C@@H]1O (some centres unmarked) [Glucosamine, glucosamine]
Degree of GM1 Staining [2]: also induced GM1, but to a lesser degree

O=C[C@H](O)[C@@H](O)[C@@H](O)[C@H](O)CO [Switch from No glucose to galactose, galactose]
Cell Death (SHSY-5Y cells): −

PDGF
Degree of Cell Death [7]: −
